Assay results published in patent US9932327B2, “Rohitukine analogs as cyclin-dependent kinase inhibitors and a process for the preparation thereof” (COUNCIL OF SCIENTIFIC AND INDUSTRIAL RESEARCH, priority 2013, dated 2018).

Assays:
Format in all cases: cell-based
[1] = tested on: PC-3 (Prostate); experiment: Cytotoxicity, MTT assay, PC-3; details: for inhibition at 10 µM: read-out: Cell Growth Inhibition (%)
Protocol: (§1) Compounds proposed in the present invention were evaluated for their cytotoxic effect against panel of six cancer cell line viz. HL-60 (Leukemia), PC-3 (Prostate), A-375 (Melanoma), MIAPaCa-2 (pancreatic), MCF-7 (Breast) and Caco-2 (Colon) using MTT assay. In each well of a 96-well plate, 3×10^3 cells were grown in 100 μL of medium. After 24 h, each test molecules were added to achieve a final concentration of 10 to 0.01 μmol/L, respectively. After 48 h of treatment, 20 μL of 2.5 mg/mL MTT (Organics Research, Inc.) solution in phosphate buffer saline was added to each well. After 48 h, supernatant was removed and formazan crystals were dissolved in 200 μL of DMSO. Absorbance was then measured at 570 nm using an absorbance plate reader (Bio-Rad Microplate Reader). Data are expressed as the percentage of viable cells in treated relative to non-treated conditions.

[2] = tested on: MCF-7 (Breast); experiment: Cytotoxicity, MTT assay, MCF-7; details: Homo sapiens; for IC50: MCF7; for inhibition at 10 µM: MCF7, 10 μM, read-out: Cell Growth Inhibition (%)
Protocol: as §1

[3] = tested on: HL-60 (Leukemia); experiment: Cytotoxicity, MTT assay, HL-60; details: Homo sapiens; for inhibition at 10 µM: read-out: Cell Growth Inhibition (%)
Protocol: as §1

[4] = tested on: A-375 (Melanoma); experiment: Cytotoxicity, MTT assay, A-375; details: Homo sapiens; for inhibition at 10 µM: read-out: Cell Growth Inhibition (%)
Protocol: as §1

[5] = tested on: Caco-2 (Colon); experiment: Cytotoxicity, MTT assay, Caco-2; details: Homo sapiens; for inhibition at 10 µM: read-out: Cell Growth Inhibition (%)
Protocol: as §1

[6] = tested on: MIAPaCa-2 (pancreatic); experiment: Cytotoxicity, MTT assay, MIAPaCa-2; details: Homo sapiens, MIA PaCa-2, read-out: Cell Growth Inhibition (%)
Protocol: as §1

Compound `CN1CCC(c2c(O)cc(O)c3c(=O)cc(/C=C/c4ccc(Cl)cc4)oc23)C(O)C1` (stereo not shown) [Compound 32, 2-(4-Chlorostyryl)-5,7-dihydroxy-8-(3-hydroxy-1-methylpiperidin-4-yl)-4H-chromen-4-one] has an IC50 [1] of 31 µM, an IC50 [2] of 49 µM and an IC50 [3] of 8 µM. It also gave an IC50 [4] of 30 µM and an IC50 [5] of 5.6 µM.

Work on `Cc1cc(=O)c2c(O)cc(OCc3ccco3)c(C3CCN(C)CC3O)c2o1` (stereo not shown) [Compound 5, 7-((Furan-2-yl)methoxy)-5-hydroxy-8-(3-hydroxy-1-methylpiperidin-4-yl)-2-methyl-4H-chromen-4-one] yielded an inhibition at 10 µM [1] of 14.1%, an inhibition at 10 µM [2] of 5.73% and an inhibition at 10 µM [6] of 6.61%. The inhibition at 10 µM [3] was 31.9%, the inhibition at 10 µM [4] was 36.8% and the inhibition at 10 µM [5] was 16.9%.

`CN1CCC(c2c(O)cc(O)c3c(=O)cc(/C=C/c4cccc(Cl)c4)oc23)C(O)C1` (stereo not shown) [Compound 28, 2-(3-Chlorostyryl)-5,7-dihydroxy-8-(3-hydroxy-1-methylpiperidin-4-yl)-4H-chromen-4-one] showed an IC50 [1] of 10 µM, an inhibition at 10 µM [1] of 53.7% and an IC50 [2] of 2 µM. For the same compound, the inhibition at 10 µM [2] was 80.4%, the inhibition at 10 µM [6] was 40.3% and the inhibition at 10 µM [3] was 24.3%. For the same compound, the IC50 [4] was 4 µM, the inhibition at 10 µM [4] was 65.9% and the inhibition at 10 µM [5] was 27.5%.

`Cc1cc(=O)c2c(O)cc(OCc3ccccc3)c(C3CCN(C)CC3O)c2o1` (stereo not shown) [Compound 2, 7-(benzyloxy)-5-hydroxy-8-(3-hydroxy-1-methylpiperidin-4-yl)-2-methyl-4H-chromen-4-one] gave an inhibition at 10 µM [1] of 41%, an inhibition at 10 µM [2] of 1.44% and an inhibition at 10 µM [6] of 13.8%. It also gave an inhibition at 10 µM [3] of 24.3%, an inhibition at 10 µM [4] of 27.8% and an inhibition at 10 µM [5] of 17.6%.

Work on `CN1CCC(c2c(O)cc(O)c3c(=O)cc(/C=C/c4ccccc4)oc23)C(O)C1` (stereo not shown) [Compound 31, 2-styryl-5,7-dihydroxy-8-(3-hydroxy-1-methylpiperidin-4-yl)-4H-chromen-4-one] yielded an IC50 [1] of 58 µM, an IC50 [2] of 31 µM and an IC50 [3] of 1 µM. For the same compound, the IC50 [4] was 4.4 µM and the IC50 [5] was 3.7 µM.

In the case of `Cc1cc(=O)c2c(O)cc(OCc3nc4ccccc4[nH]3)c(C3CCN(C)CC3O)c2o1` (stereo not shown) [Compound 10, 7-((1H-Benzo[d]imidazol-2-yl)methoxy)-5-hydroxy-8-(3-hydroxy-1-methylpiperidin-4-yl)-2-methyl-4H-chromen-4-one], the IC50 [3] is reported as 8 µM.

With `Cc1cc(=O)c2c(O)cc(OC(=O)c3ccco3)c(C3CCN(C)CC3O)c2o1` (stereo not shown) [Compound 11, 5-Hydroxy-8-(3-hydroxy-1-methylpiperidin-4-yl)-2-methyl-4-oxo-4H-chromen-7-yl furan-2-carboxylate] the inhibition at 10 µM [1] was 15.1%, the inhibition at 10 µM [2] was 2.86% and the inhibition at 10 µM [6] was 16.1%. The inhibition at 10 µM [3] was 80.2%, the inhibition at 10 µM [4] was 11.2% and the inhibition at 10 µM [5] was 1.96%.

With `COc1ccc(COc2cc(O)c3c(=O)cc(C)oc3c2C2CCN(C)CC2O)cc1` (stereo not shown) [Compound 3, 7-(4-Methoxybenzyloxy)-5-hydroxy-8-(3-hydroxy-1-methylpiperidin-4-yl)-2-methyl-4H-chromen-4-one] the inhibition at 10 µM [1] was 35.2%, the inhibition at 10 µM [2] was 15.6% and the inhibition at 10 µM [6] was 15.7%. For the same compound, the inhibition at 10 µM [3] was 22.8% and the inhibition at 10 µM [5] was 8.43%.

With `Cc1oc2c(C3CCN(C)CC3O)c(O)cc(O)c2c(=O)c1C(O)c1cccc(Cl)c1` (stereo not shown) [Compound 17, 3-((3-Chlorophenyl)(hydroxy)methyl)-5,7-dihydroxy-8-(3-hydroxy-1-methylpiperidin-4-yl)-2-methyl-4H-chromen-4-one] the inhibition at 10 µM [1] was 31%, the inhibition at 10 µM [2] was 5.01% and the inhibition at 10 µM [6] was 1.52%. The inhibition at 10 µM [3] was 22.2%, the inhibition at 10 µM [4] was 34.9% and the inhibition at 10 µM [5] was 4.42%.

In the case of `Cc1oc2c(C3CCN(C)CC3O)c(O)cc(O)c2c(=O)c1C(O)c1ccc([N+](=O)[O-])cc1` (stereo not shown) [Compound 13, 5,7-Dihydroxy-3-(hydroxy(4-nitrophenyl)methyl)-8-(3-hydroxy-1-methylpiperidin-4-yl)-2-methyl-4H-chromen-4-one], the inhibition at 10 µM [1] is reported as 23.8%, the inhibition at 10 µM [2] is reported as 4.03% and the inhibition at 10 µM [6] is reported as 2.48%. For the same compound, the inhibition at 10 µM [3] was 0%, the inhibition at 10 µM [4] was 35.9% and the inhibition at 10 µM [5] was 5.08%.
